# Assay results published in patent publication US20210300940A1 (Merck Patent GmbH, priority 2018, published 2021).
# How the values were obtained:
# [1] = target: T1, TLR8 (Homo sapiens, UniProt Q9NR97); experiment: HEK/293 TLR8 Cell Assay; assay type: cell-based; conditions: HEK cells, R848 agonist 30 uM final concentration, Steady-Glo readout; read-out: TLR8 potency
# T1 construct: expressed in transfected cells; host or cells: HEK/293 reporter cells (NF-kB luciferase)
# T1 sequence (Q9NR97 27-1041): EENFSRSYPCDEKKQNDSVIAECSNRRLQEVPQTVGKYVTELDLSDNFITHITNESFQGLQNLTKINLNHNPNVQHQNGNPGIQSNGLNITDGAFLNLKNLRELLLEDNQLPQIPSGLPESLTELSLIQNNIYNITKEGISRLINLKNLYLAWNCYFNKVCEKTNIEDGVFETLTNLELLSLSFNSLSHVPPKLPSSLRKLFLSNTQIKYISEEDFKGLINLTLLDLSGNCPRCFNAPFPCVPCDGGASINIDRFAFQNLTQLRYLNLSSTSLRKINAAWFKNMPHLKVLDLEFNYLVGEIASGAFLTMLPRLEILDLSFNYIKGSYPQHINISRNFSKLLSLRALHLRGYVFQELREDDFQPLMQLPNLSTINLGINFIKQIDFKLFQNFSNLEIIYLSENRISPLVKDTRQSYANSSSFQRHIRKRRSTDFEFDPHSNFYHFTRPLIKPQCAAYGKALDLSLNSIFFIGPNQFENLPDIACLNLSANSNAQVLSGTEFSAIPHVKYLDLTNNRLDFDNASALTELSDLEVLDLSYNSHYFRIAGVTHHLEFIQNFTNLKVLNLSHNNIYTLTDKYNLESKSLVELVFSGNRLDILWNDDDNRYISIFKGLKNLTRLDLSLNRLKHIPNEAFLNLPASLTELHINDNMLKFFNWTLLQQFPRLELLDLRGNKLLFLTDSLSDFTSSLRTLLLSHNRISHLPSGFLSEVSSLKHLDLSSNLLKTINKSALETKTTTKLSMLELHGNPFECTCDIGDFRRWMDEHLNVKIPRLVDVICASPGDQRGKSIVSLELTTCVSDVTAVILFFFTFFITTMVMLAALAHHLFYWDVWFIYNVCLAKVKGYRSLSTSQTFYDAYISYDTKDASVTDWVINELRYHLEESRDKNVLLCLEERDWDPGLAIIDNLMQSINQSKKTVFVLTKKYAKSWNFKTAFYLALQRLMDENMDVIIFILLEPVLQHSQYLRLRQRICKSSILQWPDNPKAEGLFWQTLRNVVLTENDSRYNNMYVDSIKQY
# [2] = target: T2, TLR7 (Homo sapiens, UniProt Q9NYK1); experiment: HEK/293 TLR7 Cell Assay; assay type: cell-based; conditions: TLR7/NFKb HEK cells, R848 agonist 10 uM final concentration, Steady-Glo readout; read-out: TLR7 potency
# T2 construct: expressed in transfected cells; host or cells: HEK/293 cells carrying TLR7 and an NF-kB luciferase reporter
# T2 sequence (Q9NYK1 27-1049): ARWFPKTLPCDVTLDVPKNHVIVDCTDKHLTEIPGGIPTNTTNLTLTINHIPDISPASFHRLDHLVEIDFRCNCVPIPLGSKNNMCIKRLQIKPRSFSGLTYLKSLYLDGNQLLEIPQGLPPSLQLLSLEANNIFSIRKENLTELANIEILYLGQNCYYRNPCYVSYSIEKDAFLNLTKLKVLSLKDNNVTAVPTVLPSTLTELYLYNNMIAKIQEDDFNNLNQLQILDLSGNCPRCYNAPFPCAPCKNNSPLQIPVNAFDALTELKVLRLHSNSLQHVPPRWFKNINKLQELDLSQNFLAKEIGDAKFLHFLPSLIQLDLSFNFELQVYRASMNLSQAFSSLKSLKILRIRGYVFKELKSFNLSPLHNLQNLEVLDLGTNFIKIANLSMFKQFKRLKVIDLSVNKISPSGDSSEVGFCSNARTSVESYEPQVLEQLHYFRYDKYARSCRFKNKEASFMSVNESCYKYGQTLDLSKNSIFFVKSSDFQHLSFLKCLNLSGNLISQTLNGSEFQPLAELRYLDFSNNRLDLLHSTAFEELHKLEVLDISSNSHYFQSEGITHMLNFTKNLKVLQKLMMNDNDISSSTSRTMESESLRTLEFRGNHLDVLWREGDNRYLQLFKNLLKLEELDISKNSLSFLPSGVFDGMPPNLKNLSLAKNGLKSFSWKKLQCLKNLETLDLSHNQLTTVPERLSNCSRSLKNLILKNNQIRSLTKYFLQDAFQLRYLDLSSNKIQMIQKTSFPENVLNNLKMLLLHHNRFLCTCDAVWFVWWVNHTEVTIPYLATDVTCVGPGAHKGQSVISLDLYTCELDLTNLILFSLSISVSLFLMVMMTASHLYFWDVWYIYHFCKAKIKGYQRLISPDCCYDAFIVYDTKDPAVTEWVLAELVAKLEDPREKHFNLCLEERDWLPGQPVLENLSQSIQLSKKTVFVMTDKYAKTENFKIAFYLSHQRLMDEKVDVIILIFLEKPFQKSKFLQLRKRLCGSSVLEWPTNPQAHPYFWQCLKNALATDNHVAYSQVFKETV
# Summary of the method: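 TLR7/NF-κB reporter HEK293 cells, 5000/well, cultured 24 h, then preincubated 30 min with compound before R848 agonist (10 uM final). After 5 h stimulation, Steady-Glo luciferase luminescence read.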
Compound,IC50 [1] [nM],IC50 [2] [nM]
"Cc1c(F)cc(N2C[C@H](NC(=O)[C@@H]3CCCN3)C[C@H](C(F)(F)F)C2)c2cccnc12 [Example 115, (2S)—N-[(3R,5S)-1-(7-fluoro-8-methylquinolin-5-yl)-5-(trifluoromethyl)piperidin-3-yl]pyrrolidine-2-carboxamide]",< 75,> 150
"CC(=O)N1CCC(NC[C@H]2CN(c3cnc(C#N)c4ncccc34)C[C@@H](C)O2)CC1 [Example 381, 5-{(2S,6R)-2-[(1-Acetyl-piperidin-4-ylamino)-methyl]-6-methyl-morpholin-4-yl}-[1,7]naphthyridine-8-carbonitrile]",> 150,> 150
"C[C@@H](O)[C@H](N)C(=O)N1CCC(CC(=O)N[C@@H]2C[C@H](C(F)(F)F)CN(c3ccc(C#N)c4ncccc34)C2)CC1 [Example 184, 2-[1-((2S,3R)-2-Amino-3-hydroxy-butyryl)-piperidin-4-yl]-N-[(3R,5S)-1-(8-cyano-quinolin-5-yl)-5-trifluoromethyl-piperidin-3-yl]-acetamide]",75 to 150,> 150
"C[C@H]1C[C@@H](OCCN2CCN(C)CC2)CN(c2ccc(C(F)(F)F)c3ncccc23)C1 (racemic) [Example 2, 5-[cis-3-methyl-5-[2-(4-methylpiperazin-1-yl)ethoxy]piperidin-1-yl]-8-(trifluoromethyl)quinoline]",< 75,< 75
"C[C@H]1C[C@@H](NC(=O)C2(N)CCCNC2)CN(c2ccc(C(F)(F)F)c3ncccc23)C1 (stereo partly drawn) [Example 180, 3-Amino-piperidine-3-carboxylic acid [(3R,5S)-5-methyl-1-(8-trifluoromethyl-quinolin-5-yl)-piperidin-3-yl]-amide]",< 75,< 75
"C[C@@H](C(=O)N[C@@H]1C[C@H](C(F)(F)F)CN(c2ccc(C#N)c3ncccc23)C1)N1CCN(C)CC1 (single isomer, unassigned) [Example 101]",< 75,< 75
"C[C@H]1C[C@@H](NCCCS(N)(=O)=O)CN(c2ccc(C(F)(F)F)c3ncccc23)C1 [Example 39, 3-[(3R,5S)-5-Methyl-1-(8-trifluoromethyl-quinolin-5-yl)-piperidin-3-ylamino]-propane-1-sulfonic acid amide]",< 75,< 75
"Cc1ncc(N2C[C@@H](C)C[C@@H](NC(=O)CC3C4CC3CN(C)C4)C2)c2cccnc12 (stereo partly drawn) [Example 165, 2-(3-Methyl-3-aza-bicyclo[3.1.1]hept-6-yl)-N-[(3R,5S)-5-methyl-1-(8-methyl-naphthyridin-5-yl)-piperidin-3-yl]-acetamide]",< 75,< 75
"N#Cc1ccc(N2C[C@H](NC(=O)C(O)CO)C[C@H](C(F)(F)F)C2)c2cccnc12 (stereo partly drawn) [Example 60, N-[(3R,5S)-1-(8-Cyano-quinolin-5-yl)-5-trifluoromethyl-piperidin-3-yl]-2,3-dihydroxy-propionamide]",< 75,< 75
"C[C@H]1C[C@@H](NC(=O)CC2CCN(CCO)CC2F)CN(c2cnc(C#N)c3ncccc23)C1 (stereo partly drawn) [Example 148, N-[(3R,5S)-1-(8-Cyano-[1,7]naphthyridin-5-yl)-5-methyl-piperidin-3-yl]-2-[3-fluoro-1-(2-hydroxy-ethyl)-piperidin-4-yl]-acetamide]",< 75,75 to 150
"CN1CCC(F)(CNC(=O)[C@@H]2CN(c3ccc(C#N)c4nccnc34)C[C@H](C(F)(F)F)O2)CC1 (single isomer, unassigned) [Example 360]",< 75,< 75
"CC(C(=O)N[C@@H]1C[C@H](C)CN(c2cnc(C#N)c3nccnc23)C1)N1CCN(C)CC1 (stereo partly drawn) [Example 190, N-[(3R,5S)-1-(5-Cyano-pyrido[3,4-b]pyrazin-8-yl)-5-methyl-piperidin-3-yl]-2-(4-methyl-piperazin-1-yl)-propionamide]",< 75,75 to 150
"C[C@@H]1CN(c2cnc(C#N)c3ncccc23)C[C@H](CNC(=O)[C@@]2(F)CCCNC2)O1 (single isomer, unassigned) [Example 338]",< 75,< 75
"C[C@@H]1CN(c2ccc(C#N)c3nccnc23)C[C@H](C(=O)NCC2(F)CCN(C)CC2)O1 [Example 253, (2R,6R)-4-(8-Cyano-quinoxalin-5-yl)-6-methyl-morpholine-2-carboxylic acid (4-fluoro-1-methyl-piperidin-4-ylmethyl)-amide]",< 75,< 75
"C[C@@H]1CN(c2cnc(C(F)(F)F)c3ncccc23)C[C@H](CN2CCN(C)CC2)O1 [Example 387, 5-[(2R,6S)-2-Methyl-6-(4-methyl-piperazin-1-ylmethyl)-morpholin-4-yl]-8-trifluoromethyl-[1,7]naphthyridine]",75 to 150,75 to 150
"C[C@H]1C[C@@H](NCC(C)(C)O)CN(c2ccc(C(F)(F)F)c3ncccc23)C1 [Example 17, 2-Methyl-1-[(3R,5S)-5-methyl-1-(8-trifluoromethyl-quinolin-5-yl)-piperidin-3-ylamino]-propan-2-ol]",< 75,< 75
"CCN(CC)C1CCN(C[C@H]2CN(c3ccc(C#N)c4nccnc34)C[C@@H](C)O2)CC1 [Example 217, 8-[(2S,6R)-2-(4-Diethylamino-piperidin-1-ylmethyl)-6-methyl-morpholin-4-yl]-quinoxaline-5-carbonitrile]",< 75,< 75
"C[C@@H]1CN(c2cnc(C#N)c3ncccc23)C[C@H](CNCC2(O)COC2)O1 [Example 378, 5-((2S,6R)-2-{[(3-Hydroxy-oxetan-3-ylmethyl)-amino]-methyl}-6-methyl-morpholin-4-yl)-[1,7]naphthyridine-8-carbonitrile]",> 150,> 150
"C[C@H]1C[C@@H](NCC2(O)CCOCC2)CN(c2ccc(C#N)c3nccnc23)C1 [Example 14, 8-{(3R,5S)-3-[(4-Hydroxy-tetrahydro-pyran-4-ylmethyl)-amino]-5-methyl-piperidin-1-yl}-quinoxaline-5-carbonitrile]",< 75,< 75
"N#Cc1ccc(N2C[C@H](NCCCS(N)(=O)=O)C[C@H](C(F)(F)F)C2)c2cccnc12 [Example 38, 3-[(3R,5S)-1-(8-Cyano-quinolin-5-yl)-5-trifluoromethyl-piperidin-3-ylamino]-propane-1-sulfonic acid amide]",75 to 150,> 150
"Cc1ccc(N2C[C@H](CNC(=O)CC3CCN(C)CC3)O[C@H](C)C2)c2cccnc12 [Example 342, N-{[(2S,6R)-6-methyl-4-(8-methylquinolin-5-yl)morpholin-2-yl]methyl}-2-(1-methylpiperidin-4-yl)acetamide]",< 75,< 75
